Numbered stars: 1 amine (or outer) side, 2 acyl side, 3 side chain; on linkers, the order of the positions; unused ones are H or OH. Bridge positions count the residues as written; N and C are the ends. Square brackets hold non-standard residues; d marks the D form. Peptide text beside a SMILES is read from it. * marks the point of attachment. Ala(piperidin-4-yl) = O=C([C@H](CC1CCN([*:3])CC1)N[*:1])[*:2]; DOTA = O=C(O)CN1CCN(CC(=O)O)CCN(CC(=O)*)CCN(CC(=O)O)CC1; Phe(4-CH2NH2) = NCc1ccc(C[C@H](N)C(=O)O)cc1; Bip = N[C@@H](Cc1ccc(-c2ccccc2)cc1)C(=O)O; 1Nal = N[C@@H](Cc1cccc2ccccc12)C(=O)O; 2Nal = N[C@@H](Cc1ccc2ccccc2c1)C(=O)O; NMetBuAla = CN[C@@H](CC(C)(C)C)C(=O)O; Phe(2-Me) = Cc1ccccc1C[C@H](N)C(=O)O; tBuAla = CC(C)(C)C[C@H](N)C(=O)O; αMeD = C[C@](N)(CC(=O)O)C(=O)O; AllylGly = C=CC[C@H](N)C(=O)O; Chg = N[C@H](C(=O)O)C1CCCCC1; Tle = CC(C)(C)[C@H](N)C(=O)O; αMeP = C[C@@]1(C(=O)O)CCCN1; dNle = CCCC[C@@H](N)C(=O)O; Dap = NC[C@H](N)C(=O)O; Ahx = NCCCCCC(=O)O
biological target: T1, human DLL3 (Homo sapiens, UniProt Q9NYJ7); test: Affinity determination by Surface Plasmon Resonance (SPR), Biacore, 1:1 binding model; conditions: biotinylated human DLL3 on streptavidin chip, 25° C.; NB = nonbinding
T1 construct: biotin (biotinylated)
T1 sequence (Q9NYJ7 27-618): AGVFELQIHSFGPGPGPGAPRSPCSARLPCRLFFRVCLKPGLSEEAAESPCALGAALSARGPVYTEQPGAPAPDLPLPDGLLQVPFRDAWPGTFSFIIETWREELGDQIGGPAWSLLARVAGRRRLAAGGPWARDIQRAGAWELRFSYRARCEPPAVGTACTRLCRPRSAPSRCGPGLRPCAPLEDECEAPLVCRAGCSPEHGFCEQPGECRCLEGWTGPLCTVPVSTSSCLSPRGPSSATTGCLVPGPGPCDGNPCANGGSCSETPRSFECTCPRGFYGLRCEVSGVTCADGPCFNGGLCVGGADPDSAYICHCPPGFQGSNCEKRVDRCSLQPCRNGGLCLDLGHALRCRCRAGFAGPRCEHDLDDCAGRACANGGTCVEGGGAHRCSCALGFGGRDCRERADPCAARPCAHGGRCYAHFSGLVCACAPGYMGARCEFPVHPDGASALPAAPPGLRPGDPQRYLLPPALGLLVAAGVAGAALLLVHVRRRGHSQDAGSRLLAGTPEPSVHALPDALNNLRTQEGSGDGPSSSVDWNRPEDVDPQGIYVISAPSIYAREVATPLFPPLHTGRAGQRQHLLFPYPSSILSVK
How it was run: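 SPR with biotinylated human DLL3 captured on a streptavidin chip, with a reference surface subtracted. Samples were injected at several concentrations at 100 μL/min in phosphate buffer with 137 mM NaCl, 2.7 mM KCl, 0.05% P20 and 2% DMSO. Kinetic and affinity constants came from a 1:1 binding fit.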

Kd | SPR KD (nM) | Compound
0.098 nM |  | C[C@@H](NC(=O)CCCCCNC(=O)CN1CCN(CC(=O)O)CCN(CC(=O)O)CCN(CC(=O)O)CC1)C(=O)N[C@@H](CO)C(=O)N[C@@H](CC(=O)O)C(=O)N[C@H]1CSSC[C@@H](C(=O)N2CCC[C@@]2(C)C(=O)N[C@@H](Cc2ccccc2)C(=O)N[C@@H](CC(=O)O)C(N)=O)NC(=O)[C@H](CC(N)=O)NC(=O)[C@H](Cc2ccc3ccccc3c2)NC(=O)[C@H](CC2CCNCC2)NC(=O)[C@H](CC(C)(C)C)NC(=O)[C@H](Cc2cccc3ccccc23)NC1=O [compound 177, DOTA-PEG4-S-D-C(3)-(1Nal)-(t-Bu-Ala)-[3-(4-piperidinyl)-Ala]-(2Nal)-N-C(3)-(aMe-P)-F -D-CONH2] ({DOTA-Ahx}-[dA]SDC[1Nal][tBuAla][Ala(piperidin-4-yl)][2Nal]NC[αMeP]FD-NH2; disulfide 4-10)
14.6 nM |  | CC(=O)N[C@@H](CC1CCNCC1)C(=O)N[C@@H](CO)C(=O)N[C@@H](CC(=O)O)C(=O)N[C@H]1C/C=C\C[C@@H](C(=O)N2CCC[C@@]2(C)C(=O)N[C@@H](Cc2ccccc2)C(=O)N[C@@H](CC(=O)O)C(N)=O)NC(=O)[C@H](CC(N)=O)NC(=O)[C@H](Cc2ccc3ccccc3c2)NC(=O)[C@H](Cc2ccc(CNC(=O)CN3CCN(CC(=O)O)CCN(CC(=O)O)CCN(CC(=O)O)CC3)cc2)NC(=O)[C@H](CC(C)(C)C)NC(=O)[C@H](Cc2cccc3ccccc23)NC1=O [compound 201, Ac-[3-(4-piperidinyl)-Ala]-S-D-AllyG(4)-(1Nal)-(t-Bu-Ala)-[PAF(DOTA)]-(2Nal)-N-AllyG(4)-(aMe-P)-F-D-CONH2] (Ac-[Ala(piperidin-4-yl)]SD[AllylGly][1Nal][tBuAla][Phe(4-CH2NH2)](DOTA)[2Nal]N[AllylGly][αMeP]FD-NH2; staple (Z) 4-10)
0.067 nM |  | C[C@@H](NC(=O)CN1CCN(CC(=O)O)CCN(CC(=O)O)CCN(CC(=O)O)CC1)C(=O)N[C@@H](CO)C(=O)N[C@@H](CC(=O)O)C(=O)N[C@H]1CSSC[C@@H](C(=O)N2CCC[C@@]2(C)C(=O)N[C@@H](Cc2ccccc2)C(=O)N[C@@H](CC(=O)O)C(N)=O)NC(=O)[C@H](CC(N)=O)NC(=O)[C@H](Cc2ccc3ccccc3c2)NC(=O)[C@H](CC2CCNCC2)NC(=O)[C@H](CC(C)(C)C)NC(=O)[C@H](Cc2cccc3ccccc23)NC1=O [compound 175, DOTA-(D-Ala)-S-D-C(3)-(1Nal)-(t-Bu-Ala)-[3-(4-piperidinyl)-Ala]-(2Nal)-N-C(3)-(aMe-P)-F -D-CONH2] ({DOTA}-[dA]SDC[1Nal][tBuAla][Ala(piperidin-4-yl)][2Nal]NC[αMeP]FD-NH2; disulfide 4-10)
0.27 nM |  | CC(=O)N[C@@H](CC1CCNCC1)C(=O)N[C@@H](CO)C(=O)N[C@@](C)(CC(=O)O)C(=O)N[C@H]1C/C=C/C[C@@H](C(=O)N2CCC[C@@]2(C)C(=O)N[C@@H](Cc2ccccc2)C(=O)N[C@@H](CC(=O)O)C(N)=O)NC(=O)[C@H](CC(N)=O)NC(=O)[C@H](Cc2ccc3ccccc3c2)NC(=O)[C@H](Cc2ccc(CNC(=O)CN3CCN(CC(=O)O)CCN(CC(=O)O)CCN(CC(=O)O)CC3)cc2)NC(=O)[C@H](CC(C)(C)C)NC(=O)[C@H](Cc2cccc3ccccc23)NC1=O [compound 194, Ac-[3-(4-piperidinyl)-Ala]-S-(aMe-Asp)-AllyG(4)-(1Nal)-(t-Bu-Ala)-[PAF(DOTA)]-(2Nal)-N-AllyG(4)-(aMe-P)-F-D-CONH2] (Ac-[Ala(piperidin-4-yl)]S[αMeD][AllylGly][1Nal][tBuAla][Phe(4-CH2NH2)](DOTA)[2Nal]N[AllylGly][αMeP]FD-NH2; staple (E) 4-10)
> 30 nM |  | CC(=O)N[C@@H](CC1CCNCC1)C(=O)N[C@@H](CO)C(=O)N[C@@H](CC(=O)O)C(=O)N[C@H]1CSSC[C@@H](C(=O)N2CCC[C@@]2(C)C(=O)N[C@@H](Cc2ccccc2)C(=O)N[C@@H](CC(=O)O)C(N)=O)NC(=O)[C@H](CC(N)=O)NC(=O)[C@H](Cc2ccc3ccccc3c2)NC(=O)[C@H](Cc2ccc(CNC(=O)CN3CCN(CC(=O)O)CCN(CC(=O)O)CCN(CC(=O)O)CC3)cc2)NC(=O)[C@H](CC(C)(C)C)N(C)C(=O)[C@H](Cc2cccc3ccccc23)NC1=O [compound 180, Ac-[3-(4-piperidinyl)-Ala]-S-D-C(3)-(1Nal)-(NMe-Tba)-[PAF(DOTA)]-(2Nal)-N-C(3)-(aMe-P)-F -D-CONH2] (Ac-[Ala(piperidin-4-yl)]SDC[1Nal][NMetBuAla][Phe(4-CH2NH2)](DOTA)[2Nal]NC[αMeP]FD-NH2; disulfide 4-10)

Continued, compound first:

Compound | Kd | SPR KD (nM)
CC(=O)N[C@H](C(=O)N[C@@H](CO)C(=O)N[C@@H](CC(=O)O)C(=O)N[C@H]1CSSC[C@@H](C(=O)N2CCC[C@@]2(C)C(=O)N[C@@H](Cc2ccccc2)C(=O)N[C@@H](CC(=O)O)C(=O)N[C@H](CCCCNC(=O)CN2CCN(CC(=O)O)CCN(CC(=O)O)CCN(CC(=O)O)CC2)C(N)=O)NC(=O)[C@H](CC(N)=O)NC(=O)[C@H](Cc2ccc3ccccc3c2)NC(=O)[C@H](CCC(N)=O)NC(=O)[C@H](C(C)(C)C)NC(=O)[C@H](Cc2cccc3ccccc23)NC1=O)C1CCCCC1 [compound 131, Ac-(Chg)-S-D-C(3)-(1Nal)-(D-Leu)-Q-(2Nal)-N-C(3)-(aMe-P)-F-D-D-Lys(DOTA)-CONH2] (Ac-[Chg]SDC[1Nal][Tle]Q[2Nal]NC[αMeP]FD[dK](DOTA)-NH2; disulfide 4-10) | 0.95 nM | 
CC(=O)N[C@H](C)C(=O)N[C@@H](CO)C(=O)N[C@@H](CC(=O)O)C(=O)N[C@H]1CCC(=O)NC[C@@H](C(=O)N2CCC[C@@]2(C)C(=O)N[C@@H](Cc2ccccc2C)C(=O)N[C@@H](CC(=O)O)C(=O)N[C@H](CCCCNC(=O)CN2CCN(CC(=O)O)CCN(CC(=O)O)CCN(CC(=O)O)CC2)C(N)=O)NC(=O)[C@H](CC(N)=O)NC(=O)[C@H](Cc2ccc3ccccc3c2)NC(=O)[C@H](CCC(N)=O)NC(=O)[C@H](CC(C)(C)C)NC(=O)[C@H](Cc2cccc3ccccc23)NC1=O [Cpd #160, Ac-(D-Ala)-S-D-Glu(2)-(1Nal)-(t-Bu-Ala)-Q-(2Nal)-N-Dap(2)-(aMe-P)-(2Me-F)-D-D-Lys(DOTA)-CONH2] (Ac-[dA]SDE[1Nal][tBuAla]Q[2Nal]N[Dap][αMeP][Phe(2-Me)]D[dK](DOTA)-NH2; lactam 4-10) | > 300 nM | 
CC(C)C[C@@H]1NC(=O)[C@H](Cc2c[nH]c3ccccc23)NC(=O)[C@@H](NC(=O)[C@H](CC(=O)O)NC(=O)[C@H](CO)NC(=O)CCCCCNC(=O)CN2CCN(CC(=O)O)CCN(CC(=O)O)CCN(CC(=O)O)CC2)CSSC[C@@H](C(=O)N2CCC[C@H]2C(=O)N[C@@H](Cc2cccc3ccccc23)C(=O)N[C@@H](CC(=O)O)C(N)=O)NC(=O)[C@H](CC(N)=O)NC(=O)[C@H](Cc2c[nH]c3ccccc23)NC(=O)[C@H](CCC(N)=O)NC1=O [compound 39, DOTA-Ahx-S-D-C(3)-W-L-Q-W-N-C(3)-P-(1Nal)-D-CONH2] ({DOTA-Ahx}-SDCWLQWNCP[1Nal]D-NH2; disulfide 3-9) | > 100 nM | 
Ac-(Chg)-S-D-C(3)-(1Nal)-(THPG)-Q-W-N-C(3)-(aMe-P)-F-D-D-Lys(DOTA)-CONH2 [compound 128] |  | slow kon
CCCC[C@@H](NC(C)=O)C(=O)N[C@@H](CO)C(=O)N[C@@H](CC(=O)O)C(=O)N[C@H]1CSSC[C@@H](C(=O)N2CCC[C@H]2C(=O)N[C@@H](Cc2ccccc2)C(=O)N[C@@H](CC(=O)O)C(=O)N[C@H](CCCCNC(=O)CN2CCN(CC(=O)O)CCN(CC(=O)O)CCN(CC(=O)O)CC2)C(N)=O)NC(=O)[C@H](CC(N)=O)NC(=O)[C@H](Cc2c[nH]c3ccccc23)NC(=O)[C@H](CCC(N)=O)NC(=O)[C@H](CC(C)C)NC(=O)[C@H](Cc2cccc3ccccc23)NC1=O [compound 103, Ac-(D-Nle)-S-D-C(3)-(1Nal)-L-Q-W-N-C(3)-P-F-D-D-Lys(DOTA)-CONH2] (Ac-[dNle]SDC[1Nal]LQWNCPFD[dK](DOTA)-NH2; disulfide 4-10) | 0.35 nM | 
CC(C)C[C@@H]1NC(=O)[C@H](Cc2c[nH]c3ccccc23)NC(=O)[C@@H](NC(=O)[C@H](CC(=O)O)NC(=O)[C@H](CO)NC(=O)CCCCCNC(=O)CN2CCN(CC(=O)O)CCN(CC(=O)O)CCN(CC(=O)O)CC2)CSSC[C@@H](C(=O)N2CCC[C@H]2C(=O)N[C@@H](Cc2ccc(-c3ccccc3)cc2)C(=O)N[C@@H](CC(=O)O)C(N)=O)NC(=O)[C@H](CC(N)=O)NC(=O)[C@H](Cc2c[nH]c3ccccc23)NC(=O)[C@H](CCC(N)=O)NC1=O [compound 38, DOTA-Ahx-S-D-C(3)-W-L-Q-W-N-C(3)-P-(BIP)-D-CONH2] ({DOTA-Ahx}-SDCWLQWNCP[Bip]D-NH2; disulfide 3-9) | > 300 nM | 
CSCC[C@H](NC(C)=O)C(=O)N[C@@H](CO)C(=O)N[C@@H](CC(=O)O)C(=O)N[C@H]1CSSC[C@@H](C(=O)N2CCC[C@H]2C(=O)N[C@@H](Cc2ccccc2)C(=O)N[C@@H](CC(=O)O)C(=O)N[C@H](CCCCNC(=O)CN2CCN(CC(=O)O)CCN(CC(=O)O)CCN(CC(=O)O)CC2)C(N)=O)NC(=O)[C@H](CC(N)=O)NC(=O)[C@H](Cc2c[nH]c3ccccc23)NC(=O)[C@H](CCC(N)=O)NC(=O)[C@H](CC(C)C)NC(=O)[C@H](Cc2ccc(-c3ccccc3)cc2)NC1=O [compound 55, Ac-M-S-D-C(3)-(BIP)-L-Q-W-N-C(3)-P-F-D-D-Lys(DOTA)-CONH2] (Ac-MSDC[Bip]LQWNCPFD[dK](DOTA)-NH2; disulfide 4-10) | > 300 nM | 

Reference: patent US20250186541A1, “DLL3 TARGETING PEPTIDES AND CONSTRUCTS THEREOF” (MARIANA ONCOLOGY INC., priority 2023, published 2025)
